Results published in patent publication US11000543B2, “Substances containing AuCs and preparation method and use thereof” (Shenzhen Profound-View Pharma Tech Co., Ltd, priority 2017, dated 2021).

Tests used:
[1] = molecular target: T1, α-syn (Homo sapiens, UniProt P37840); assay: In vitro α-syn aggregation kinetics, ThT fluorescent labeling method; type: biochemical; settings: L-NIBC 1.0 and 10.0 ppm; 35 μM α-syn, 37° C.
T1 construct: purchased Bachem Corp
Excerpt: Thioflavin T (abbreviation: ThT) is a dye for dyeing amyloid fibers specifically. […] When it encounters amyloid polypeptide or protein with a fiber structure, it will immediately couple with the amyloid polypeptides or proteins and its fluorescence intensity will increase exponentially. For this reason, ThT is widely used as markers to monitor amyloidosis of peptides or proteins. This embodiment utilizes ThT fluorescent labeling method to monitor the kinetics process of fibrosis aggregation of α-syn with the existence of AuCs. The specific experiment method was as follows:
Pretreatment of α-syn monomers: Freeze-dried powder (Bachem Corp.) of α-syn was dissolved in HFIP to obtain a 1 g/L α-syn solution. The solution was incubated at room temperature for 2-4 h after sealing, then blowed to dry HFIP by high-purity nitrogen in a fume hood. […]
Sample preparation and detection: Ligand-modified AuCs in different concentrations listed in Table 1 were added to 35 μM α-syn PBS solutions respectively, and incubated continuously in a 96-well plate at 37° C., by ThT fluorescent labeling method, and were monitored the fluorescence intensity by microplate reader once every 10 minutes. The kinetic process of α-syn aggregation was characterized through the change of fluorescence intensity of ThT. […]

[2] = molecular target: T2, Aβ(1-40) (Homo sapiens, UniProt P05067); assay: AFM topography of Aβ(1-40) after 48 h coincubation; type: biochemical; settings: coincubated for 48 h
T2 construct: Freeze-dried powder of amyloid polypeptide Aβ(1-40) (Invitrogen Corp.); purchased Invitrogen Corp
T2 sequence (P05067 672-711 limits assumed): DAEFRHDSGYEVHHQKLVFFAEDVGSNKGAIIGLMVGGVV
Protocol: Panel A is the AFM topography after Aβ(1-40) was incubated alone for 48 h. Panel B is an AFM topography after Aβ(1-40) was coincubated with L-NIBC for 48 h. Panel C and panel D are AFM topographies after Aβ(1-40) was coincubated with gold nanoparticles with an average particle size of 6.0 nm and 3.6 nm respectively (modified with L-NIBC) for 48 h. And […] is an AFM topography after Aβ(1-40) was coincubated with AuCs in an average particle size of 1.8 nm (modified with L-NIBC) for 48 h.

[3] = molecular target: T2, Aβ(1-40); assay: In vitro Aβ(1-40) aggregation kinetics, ThT fluorescent labeling method; type: biochemical; settings: L-NIBC 1.0 and 10.0 ppm; 20 μM Aβ(1-40), 37° C.
Excerpt: Thioflavin T (abbreviation: ThT) is a dye specifically for dyeing amyloid fibers. […] When it encounters amyloid polypeptides or proteins with a fiber structure, it will immediately couple with the amyloid polypeptides or proteins and its fluorescence intensity will increase exponentially. Just because of this property, ThT is widely used as a marker to monitor amyloidosis of peptides or proteins. The fibrosis process of Aβ(1-40) is also a nucleation-controlled polymerization process. Therefore, the growth curve of Aβ(1-40) fiber measured by ThT fluorescent labeling method is mainly divided into three stages: Initial stage, growth stage and platform stage. […] All the Aβ(1-40) PBS solutions for the experiments were prepared freshly. […] The samples were incubated continuously in a 96-well plate at 37° C. by ThT fluorescent labeling method, and monitored the fluorescence intensity by microplate reader once every 10 minutes.

[4] = tested on: SH-SY5Y neuroblastoma cell line; assay: Aβ induced AD cell model, cell viability by CCK-8; type: cell-based; settings: 20 μM Aβ(1-40), 24 h; L-NIBC 20 ppm; particles 0.01-20 ppm
Protocol: The cell viability was used as an index in the experiment of this embodiment. […] The cells used in the experiment were SH-SY5Y neuroblastoma cell line. […] Specific method:
1) SH-sy5y cells (cells had passed to the sixth generation) in logarithmic growth phase were diluted with complete medium (MEM+10% FBS+1% penicillin−streptomycin) to get a cell suspension in a density of 5×10^4/mL. The suspension was inoculated 200 μL per well into a 96-well plate, and cultivated in an incubator with 5% CO2 at 37° C. A sample was added when the cells attached to the wells.
2) 100 μL ligand-modified AuCs samples or ligand-modified gold nanoparticles samples, at different particle sizes and at concentrations of 0.04 ppm, 0.4 ppm, 4 ppm, 20 ppm, 40 ppm and 80 ppm respectively, which were dissolved by maintenance medium (MEM+2% FBS+1% penicillin-streptomycin) were added into the incubated suspension obtained from Step 1). After incubating in the incubator for 2 h, 100 μL 80 μM Aβ(1-40) was added, and then the mixture was incubated in the incubator for 24 h. […] The culture medium was removed, maintenance medium (MEM) containing 10% CCK-8 at 100 μL/well was added and was incubated for 4 h, the absorbance of each well at 450 nm was measured to reflect the prevention and treatment effects of ligand-modified AuCs on Aβ(1-40) lesion.

For CC(C)C(=O)N[C@@H](CS)C(=O)O [L-NIBC, N-isobutyryl-L-cysteine], the “effect on kinetics of α-syn aggregation” value [1] was “did not have an obvious effect”, the “Aβ(1-40) fibers in AFM topography” value [2] was “no obvious effect” and the “effect on Aβ(1-40) amyloidosis kinetics” value [3] was “no obvious effect”. For the same compound, the “effect on cell viability in Aβ-induced AD cell model” value [4] was “did not improve cell viability”.
